US20220324835A1 (Nurix Therapeutics, Inc., priority 2018, published 2022)

Key:
Cbl-b [1] = target: T1, Cbl-b (Homo sapiens, UniProt Q13191); assay: Cbl-b inhibition assay (Cbl-b activity assay, FRET, Biological Example 1; 100 mM NaCl, 60 nM Src kinase); assay type: biochemical; conditions: upper bound stated in text lists; read-out: IC50 values in the Cbl-b inhibition assay of Biological Example 1
How it was run: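 Inhibitor activity is measured as reduced terbium-to-fluorescein FRET between streptavidin-terbium on biotinylated Cbl-b and Bodipy-fluorescein ubiquitin carried by an irreversible UbcH5B-Ub conjugate, binding of which depends on Src phosphorylation of Cbl-b.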

Cbl-b [2] = target: T1, Cbl-b; assay: Cbl-b activity assay (Cbl-b inhibition assay), TR-FRET of Cbl-b interaction with UbcH5B-Ub; assay type: biochemical; conditions: assay buffer with 100 mM NaCl, 60 nM Src kinase; read-out: Cbl-b activity IC50
How it was run: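 UbcH5B (C85K) conjugated to N-terminally Bodipy-Fluorescein-labeled ubiquitin served as the fluorescent partner. After compound preincubation, Src kinase (60 nM) with 1 mM ATP and 5 mM MgCl2 (final) was added for 1.5 h, followed by a further 1 h incubation. Some values were obtained with 50 mM NaCl and 30 nM Src.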

T1 sequence (Q13191 36-427): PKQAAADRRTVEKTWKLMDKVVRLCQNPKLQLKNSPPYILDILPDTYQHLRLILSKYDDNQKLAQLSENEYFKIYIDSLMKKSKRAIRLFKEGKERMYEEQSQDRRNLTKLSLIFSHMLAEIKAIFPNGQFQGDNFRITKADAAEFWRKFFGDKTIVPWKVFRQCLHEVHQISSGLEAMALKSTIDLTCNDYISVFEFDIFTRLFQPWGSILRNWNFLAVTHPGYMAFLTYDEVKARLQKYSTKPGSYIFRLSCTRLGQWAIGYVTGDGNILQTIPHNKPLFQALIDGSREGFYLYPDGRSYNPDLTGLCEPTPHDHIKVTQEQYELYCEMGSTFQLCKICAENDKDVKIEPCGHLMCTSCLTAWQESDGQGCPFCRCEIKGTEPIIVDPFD

| Structure (SMILES) | IC50 (Cbl-b [1]) [nM] | IC50 (Cbl-b [2]) [nM] |
| --- | --- | --- |
| COc1ccc2c(c1)CN(Cc1cc3c(c(C(F)(F)F)c1)CN(c1cccc(C4(Cc5nncn5C)COC4)c1)C3=O)CC2 [Example 661, 6-((7-methoxy-3,4-dihydroisoquinolin-2(1H)-yl)methyl)-2-(3-(3-((4-methyl-4H-1,2,4-triazol-3-yl)methyl)oxetan-3-yl)phenyl)-4-(trifluoromethyl)isoindolin-1-one] | ≤ 100 | < 100 |
| Cn1cnnc1CC1(c2cccc(N3Cc4c(cc(CN5CC[C@@H](c6ccccc6)C5)cc4C(F)(F)F)C3=O)c2)COC1 [Example 662b, (S)-2-(3-(3-((4-methyl-4H-1,2,4-triazol-3-yl)methyl)oxetan-3-yl)phenyl)-6-((3-phenylpyrrolidin-1-yl)methyl)-4-(trifluoromethyl)isoindolin-1-one] | ≤ 100 | < 100 |
| C[C@@H]1CN(Cc2cc3c(c(C(F)(F)F)c2)CN(c2cccc(C4(Cc5nncn5C)COC4)c2)C3=O)C[C@H](C)O1 [Example 664, 6-(((cis)-2,6-dimethylmorpholino)methyl)-2-(3-(3-((4-methyl-4H-1,2,4-triazol-3-yl)methyl)oxetan-3-yl)phenyl)-4-(trifluoromethyl)isoindolin-1-one] | ≤ 100 | < 100 |
| Cn1cnnc1CC1(c2cccc(N3Cc4c(cc(CN5CCOC(C)(C)C5)cc4C(F)(F)F)C3=O)c2)COC1 [Example 665, 6-((2,2-dimethylmorpholino)methyl)-2-(3-(3-((4-methyl-4H-1,2,4-triazol-3-yl)methyl)oxetan-3-yl)phenyl)-4-(trifluoromethyl)isoindolin-1-one] | ≤ 100 | < 100 |
| Cn1cnnc1CC1(c2cccc(N3Cc4c(cc(CN5CCOC6(CC6)C5)cc4C(F)(F)F)C3=O)c2)COC1 [Example 666, 6-((4-oxa-7-azaspiro[2.5]octan-7-yl)methyl)-2-(3-(3-((4-methyl-4H-1,2,4-triazol-3-yl)methyl)oxetan-3-yl)phenyl)-4-(trifluoromethyl)isoindolin-1-one] | ≤ 100 | < 100 |
| COC[C@@H]1CN(Cc2cc3c(c(C(F)(F)F)c2)CN(c2cccc(C4(Cc5nncn5C)COC4)c2)C3=O)CCO1 [Example 667, (S)-6-((2-(methoxymethyl)morpholino)methyl)-2-(3-(3-((4-methyl-4H-1,2,4-triazol-3-yl)methyl)oxetan-3-yl)phenyl)-4-(trifluoromethyl)isoindolin-1-one] | ≤ 100 | < 100 |
| CC(c1cc2c(c(C(F)(F)F)c1)CN(c1cccc(C3(C(F)(F)c4nncn4C)COC3)c1)C2=O)N1CC[C@H](F)C1 (stereo partly drawn) [Example 678, 2-(3-(3-(difluoro(4-methyl-4H-1,2,4-triazol-3-yl)methyl)oxetan-3-yl)phenyl)-6-(l-((S)-3-fluoropyrrolidin-1-yl)ethyl)-4-(trifluoromethyl)isoindolin-1-one] | ≤ 100 | < 100 |
| C[C@H](Cc1nncn1C)c1cc(C2=CCOCC2)nc(N2Cc3c(cccc3C(F)(F)F)C2=O)c1 [Example 685, (R)-2-(6-(3,6-dihydro-2H-pyran-4-yl)-4-(1-(4-methyl-4H-1,2,4-triazol-3-yl)propan-2-yl)pyridin-2-yl)-4-(trifluoromethyl)isoindolin-1-one] | ≤ 1000 | 301 to 1000 |
| CC(c1nncn1C)C1(c2cccc(N3Cc4c(cc(CN5CCC6(CC6)C5)cc4C(F)(F)F)C3=O)c2)COC1 (centres unmarked) [Example 701, 6-((5-azaspiro[2.4]heptan-5-yl)methyl)-2-(3-(3-(1-(4-methyl-4H-1,2,4-triazol-3-yl)ethyl)oxetan-3-yl)phenyl)-4-(trifluoromethyl)isoindolin-1-one] | ≤ 1000 | 301 to 1000 |
| Cc1cc(C(=O)Nc2cccc(C3(Cc4nncn4C(F)F)COC3)c2)nc(C2CC2)n1 [Example 704, 2-cyclopropyl-N-(3-(3-((4-(difluoromethyl)-4H-1,2,4-triazol-3-yl)methyl)-oxetan-3-yl)phenyl)-6-methylpyrimidine-4-carboxamide] | ≤ 100 | < 100 |
| Cn1cnnc1CC1(c2cccc(N3Cc4c(cc(CN5CCc6cc(C#N)ccc6C5)cc4C(F)(F)F)C3=O)c2)COC1 [Example 706, 2-((2-(3-(3-((4-methyl-4H-1,2,4-triazol-3-yl)methyl)oxetan-3-yl)phenyl)-3-oxo-7-(trifluoromethyl)isoindolin-5-yl)methyl)-1,2,3,4-tetrahydroisoquinoline-6-carbonitrile] | ≤ 100 | < 100 |
| Cn1cnnc1CC1(c2cccc(N3Cc4c(cc(CN5CCO[C@H](C(F)(F)F)C5)cc4C(F)(F)F)C3=O)c2)COC1 [Example 707, (S)-2-(3-(3-((4-methyl-4H-1,2,4-triazol-3-yl)methyl)oxetan-3-yl)phenyl)-4-(trifluoromethyl)-6-((2-(trifluoromethyl)morpholino)methyl)isoindolin-1-one] | ≤ 100 | < 100 |
| Cn1cnnc1CC1(c2cccc(N3Cc4c(cc(CN5CCc6ncccc6C5)cc4C(F)(F)F)C3=O)c2)COC1 [Example 709, 6-((7,8-dihydro-1,6-naphthyridin-6(5H)-yl)methyl)-2-(3-(3-((4-methyl-4H-1,2,4-triazol-3-yl)methyl)oxetan-3-yl)phenyl)-4-(trifluoromethyl)isoindolin-1-one] | ≤ 100 | < 100 |
| Cn1cnnc1CC1(c2cccc(N3Cc4c(cc(CN5CCO[C@H](CO)C5)cc4C(F)(F)F)C3=O)c2)COC1 [Example 710, (S)-6-((2-(hydroxymethyl)morpholino)methyl)-2-(3-(3-((4-methyl-4H-1,2,4-triazol-3-yl)methyl)oxetan-3-yl)phenyl)-4-(trifluoromethyl)isoindolin-1-one] | ≤ 100 | < 100 |
| Cn1cnnc1CC1(c2cccc(N3Cc4c(cc(CN5CCN6C(=O)CCC6C5)cc4C(F)(F)F)C3=O)c2)COC1 (centres unmarked) [Example 711, 2-((2-(3-(3-((4-methyl-4H-1,2,4-triazol-3-yl)methyl)oxetan-3-yl)phenyl)-3-oxo-7-(trifluoromethyl)isoindolin-5-yl)methyl)hexahydropyrrolo[1,2-a]pyrazin-6(2H)-one] | ≤ 100 | < 100 |
| Cn1cnnc1CC1(c2cccc(N3Cc4c(cc(CN5CCOC6(CCOC6)C5)cc4C(F)(F)F)C3=O)c2)COC1 (centres unmarked) [Example 712, 6-((2,6-dioxa-9-azaspiro[4.5]decan-9-yl)methyl)-2-(3-(3-((4-methyl-4H-1,2,4-triazol-3-yl)methyl)oxetan-3-yl)phenyl)-4-(trifluoromethyl)isoindolin-1-one] | ≤ 100 | < 100 |
| Cn1cnnc1CC1(c2cccc(N3Cc4c(cc(CN5CCOC(CF)C5)cc4C(F)(F)F)C3=O)c2)COC1 (centres unmarked) [Example 714, 6-((2-(fluoromethyl)morpholino)methyl)-2-(3-(3-((4-methyl-4H-1,2,4-triazol-3-yl)methyl)oxetan-3-yl)phenyl)-4-(trifluoromethyl)isoindolin-1-one] | ≤ 100 | < 100 |
| Cn1cnnc1CC1(c2cccc(N3Cc4c(cc(CN5CCOC(CC(F)(F)F)C5)cc4C(F)(F)F)C3=O)c2)COC1 (centres unmarked) [Example 715, 2-(3-(3-((4-methyl-4H-1,2,4-triazol-3-yl)methyl)oxetan-3-yl)phenyl)-6-((2-(2,2,2-trifluoroethyl)morpholino)methyl)-4-(trifluoromethyl)isoindolin-1-one] | ≤ 100 | < 100 |
| CC(C)C1CN(Cc2cc3c(c(C(F)(F)F)c2)CN(c2cccc(C4(Cc5nncn5C)COC4)c2)C3=O)CCO1 (centres unmarked) [Example 716, 6-[(2-isopropylmorpholin-4-yl)methyl]-2-(3-{3-[(4-methyl-1,2,4-triazol-3-yl)methyl]oxetan-3-yl}phenyl)-4-(trifluoromethyl)-3H-isoindol-1-one] | ≤ 100 | < 100 |
| Cn1cnnc1CC1(c2cccc(N3Cc4c(cc(CN5CCOC(CCO)C5)cc4C(F)(F)F)C3=O)c2)COC1 (centres unmarked) [Example 717, 6-{[2-(2-hydroxyethyl)morpholin-4-yl]methyl}-2-(3-{3-[(4-methyl-1,2,4-triazol-3-yl)methyl]oxetan-3-yl}phenyl)-4-(trifluoromethyl)-3H-isoindol-1-one] | ≤ 100 | < 100 |
| Cn1cnnc1CC1(c2cccc(N3Cc4c(cc(CN5CCOC(C6CC6)C5)cc4C(F)(F)F)C3=O)c2)COC1 (centres unmarked) [Example 718, 6-[(2-cyclopropylmorpholin-4-yl)methyl]-2-(3-{3-[(4-methyl-1,2,4-triazol-3-yl)methyl]oxetan-3-yl}phenyl)-4-(trifluoromethyl)-3H-isoindol-1-one] | ≤ 100 | < 100 |
| Cn1cnnc1CC1(c2cccc(N3Cc4c(cc(CN5CCOC(C6CCC6)C5)cc4C(F)(F)F)C3=O)c2)COC1 (centres unmarked) [Example 719, 6-[(2-cyclobutylmorpholin-4-yl)methyl]-2-(3-{3-[(4-methyl-1,2,4-triazol-3-yl)methyl]oxetan-3-yl}phenyl)-4-(trifluoromethyl)-3H-isoindol-1-one] | ≤ 100 | < 100 |
